The text below walks through data of patent publication US20120015907A1, “Furopyridine compounds and uses thereof” (NOVARTIS AG, priority 2010, published 2012).

Structures are written as SMILES.

The target in one experiment is T1, HCV polymerase (Hepatitis C virus genotype 1b, UniProt Q9WMX2).
T1 construct: (His)6 (C)
The experiment is described as follows: biochemical. The settings on record: NS5B polymerase IC50 μM, polymerase assay of Biological Example 1.
Regarding `CCc1ccc(-c2oc3nc(N(CCCCCP(C)(=O)O)S(C)(=O)=O)c(I)cc3c2C(=O)NC)cc1` [Example 23.9997, 5-(N-(2-(4-ethylphenyl)-5-iodo-3-(methylcarbamoyl)furo[2,3-b]pyridin-6-yl)methylsulfonamido)pentyl (methyl)phosphinic acid], the IC50 (usually the concentration at which inhibition is half-maximal) amounted to 0.012 µM.

The experiment is the same for the next values; noted with them: polymerase assay of Biological Example 1; read-out: NS5B polymerase IC50.
For `CNC(=O)c1c(-c2ccc(C)cc2)oc2nc(N(CCCN)S(C)(=O)=O)c(C3CC3)cc12` [Example 23.999995, 6-(N-(3-aminopropyl)methylsulfonamido)-5-cyclopropyl-N-methyl-2-p-tolylfuro[2,3-b]pyridine-3-carboxamide], the IC50 came out at 0.014 µM.

`CNC(=O)c1c(-c2ccc(C)cc2)oc2nc(N(CCCC3CCCC3C(=O)O)S(C)(=O)=O)c(I)cc12` (stereo not shown) [Example 18.9991, 2-(3-(N-(5-iodo-3-(methylcarbamoyl)-2-p-tolylfuro[2,3-b]pyridin-6-yl)methylsulfonamido)propyl)cyclopentanecarboxylic acid]: the IC50 turned out to be 0.005 µM. As for `CNC(=O)c1c(-c2ccc(F)cc2)oc2nc(N(CCCNS(=O)(=O)c3ccccc3[N+](=O)[O-])S(C)(=O)=O)c(I)cc12` [Example 23.993, 2-(4-fluorophenyl)-5-iodo-N-methyl-6-(N-(3-(2-nitrophenylsulfonamido)propyl)methylsulfonamido) furo[2,3-b]pyridine-3-carboxamide], the IC50 is 0.125 µM. Still for that read-out and setting: next, `CNC(=O)c1c(-c2ccc(C)cc2)oc2nc(N(CCCCO)S(C)(=O)=O)c(C3CC3)cc12` [Example 23.99994, 5-cyclopropyl-6-(N-(4-hydroxybutyl)methylsulfonamido)-N-methyl-2-p-tolylfuro[2,3-b]pyridine-3-carboxamide]: 0.003 µM. Take `CCc1cc2c(C(=O)NC)c(-c3ccc(F)cc3)oc2nc1N(CCc1scnc1C)S(C)(=O)=O` [Example 22, 5-ethyl-2-(4-fluorophenyl)-N-methyl-6-(N-(2-(4-methylthiazol-5-yl)ethyl)methylsulfonamido)furo[2,3-b]pyridine-3-carboxamide]: the IC50 was determined as 0.169 µM.

With `CCc1cc2c(C(=O)NC)c(-c3ccc(F)cc3)oc2nc1N(CCCCC(=O)OC)S(C)(=O)=O` [Example 21, methyl 5-(N-(5-ethyl-2-(4-fluorophenyl)-3-(methylcarbamoyl)furo[2,3-b]pyridin-6-yl)methylsulfonamido)pentanoate], the IC50 was determined as 0.01 µM. With `CNC(=O)c1c(-c2ccc(C)cc2)oc2nc(N(CCCCCCCCC(=O)O)S(C)(=O)=O)c(C3CC3)cc12` [Example 29.992, 9-(N-(5-cyclopropyl-3-(methylcarbamoyl)-2-p-tolylfuro[2,3-b]pyridin-6-yl)methylsulfonamido) nonanoic acid], the IC50 was 0.007 µM. Still for that read-out and setting: next, `CNC(=O)c1c(-c2ccc(F)cc2)oc2nc(N(C)S(C)(=O)=O)c(I)cc12` [Example 2, 2-(4-Fluoro-phenyl)-5-iodo-6-(methanesulfonyl-methyl-amino)-furo[2,3-b]pyridine-3-carboxylic acid methylamide]: 0.163 µM; `CNC(=O)c1c(-c2ccc(F)cc2)oc2nc(N(CCCC(C)O)S(C)(=O)=O)c(I)cc12` (stereo not shown) [Example 18.998, 2-(4-fluorophenyl)-6-(N-(4-hydroxypentyl)methylsulfonamido)-5-iodo-N-methylfuro[2,3-b]pyridine-3-carboxamide]: 0.039 µM; `CNC(=O)c1c(-c2ccc(C)cc2)oc2nc(N(CCCC3(C(=O)O)CCN(C(C)=O)CC3)S(C)(=O)=O)c(C3CC3)cc12` [Example 29.99992, 1-acetyl-4-(3-(N-(5-cyclopropyl-3-(methylcarbamoyl)-2-p-tolylfuro[2,3-b]pyridin-6-yl)methylsulfonamido)propyl) piperidine-4-carboxylic acid]: 0.002 µM.

Regarding `CCc1cc2c(C(=O)NC)c(-c3ccc(F)cc3)oc2nc1N(CCc1cccc(OC)c1)S(C)(=O)=O` [Example 21.9, 5-ethyl-2-(4-fluorophenyl)-6-(N-(3-methoxyphenethyl)methylsulfonamido)-N-methylfuro[2,3-b]pyridine-3-carboxamide], the IC50 came to 0.772 µM.

As to `CNC(=O)c1c(-c2ccc(F)cc2)oc2nc3c(cc12)CCCCN3S(C)(=O)=O` [Example 39, 2-(4-Fluoro-phenyl)-9-methanesulfonyl-6,7,8,9-tetrahydro-5H-1-oxa-9,10-diaza-cyclohepta[f]indene-3-carboxylic acid methylamide], the IC50 was 0.161 µM. Same read-out and setting: next, `CCNC(=O)c1c(-c2ccc(F)cc2)oc2nc(N(C)S(C)(=O)=O)c(C3CC3)cc12` [Example 2.7, 5-cyclopropyl-N-ethyl-2-(4-fluorophenyl)-6-(N-methylmethylsulfonamido)furo[2,3-b]pyridine-3-carboxamide]: 0.044 µM.

Turning to `CCc1cc2c(C(=O)NC)c(-c3ccc(F)cc3)oc2nc1N(CCCC1=C(O)CCC1=O)S(C)(=O)=O` [Example 23.95, 5-ethyl-2-(4-fluorophenyl)-6-(N-(3-(2-hydroxy-5-oxocyclopent-1-enyl)propyl)methylsulfonamido)-N-methylfuro[2,3-b]pyridine-3-carboxamide], the IC50 is 0.029 µM. As for `CNC(=O)c1c(-c2ccc(C)cc2)oc2nc(N(CCCC(CC(=O)O)OC)S(C)(=O)=O)c(C3CC3)cc12` (stereo not shown) [Example 29.999994, 6-(N-(5-cyclopropyl-3-(methylcarbamoyl)-2-p-tolylfuro[2,3-b]pyridin-6-yl)methylsulfonamido)-3-methoxyhexanoic acid], the 50% inhibitory concentration (IC50) was 0.003 µM.

As for `CNC(=O)c1c(-c2ccc(C)cc2)oc2nc(N(CCC[C@H](COC)C(=O)O)S(C)(=O)=O)c(C3CC3)cc12` [Example 47.7, (R)-5-(N-(5-Cyclopropyl-3-(methylcarbamoyl)-2-p-tolylfuro[2,3-b]pyridin-6-yl)methylsulfonamido)-2-(methoxymethyl)pentanoic acid], the IC50 is 0.002 µM. For `CCc1ccc(-c2oc3nc(N(CCCCCO)S(C)(=O)=O)c(I)cc3c2C(=O)NC)cc1` [Example 23.9993, 2-(4-ethylphenyl)-6-(N-(5-hydroxypentyl)methylsulfonamido)-5-iodo-N-methylfuro[2,3-b]pyridine-3-carboxamide], the IC50 turned out to be 0.026 µM. As for `CCc1cc2c(C(=O)NC)c(-c3ccc(F)cc3)oc2nc1N(CCCN(C)S(C)(=O)=O)S(C)(=O)=O` [Example 23.3, 5-ethyl-2-(4-fluorophenyl)-N-methyl-6-(N-(3-(N-methylmethylsulfonamido)propyl)methylsulfonamido) furo[2,3-b]pyridine-3-carboxamide], the IC50 came to 0.058 µM. Still for that read-out and setting: next, `CNC(=O)c1c(-c2ccc(F)cc2)oc2nc(N(C)S(C)(=O)=O)c(CCCC(=O)N3CCC[C@H]3C(=O)OC)cc12` [Example 4.1, (S)-methyl 1-(4-(2-(4-fluorophenyl)-3-(methylcarbamoyl)-6-(N-methylmethylsulfonamido)furo[2,3-b]pyridin-5-yl)butanoyl)pyrrolidine-2-carboxylate]: 0.112 µM. The same measure, in the same setting: next, `CNC(=O)c1c(-c2ccc(C)cc2)oc2nc(N(CCCC[C@H](COC)C(=O)N[C@H](CO)Cc3ccccc3)S(C)(=O)=O)c(C3CC3)cc12` [Example 47.6, 5-Cyclopropyl-6-(N—((R)-6-((S)-1-hydroxy-3-phenylpropan-2-ylamino)-5-(methoxymethyl)-6-oxohexyl)methylsulfonamido)-N-methyl-2-p-tolylfuro[2,3-b]pyridine-3-carboxamide]: 0.005 µM. With `CNC(=O)c1c(-c2ccc(C)cc2)oc2nc(N(CCCC[C@H](COC)C(=O)O)S(C)(=O)=O)c(C3CC3)cc12` [Example 47.5, (R)-6-(N-(5-Cyclopropyl-3-(methylcarbamoyl)-2-p-tolylfuro[2,3-b]pyridin-6-yl)methylsulfonamido)-2-(methoxymethyl)hexanoic acid], the IC50 amounted to 0.003 µM. On to `CNC(=O)c1c(-c2ccc(C)cc2)oc2nc(N(CCC[C@@H](C)C(=O)N[C@@H](C(=O)OC)c3ccccc3)S(C)(=O)=O)c(C3CC3)cc12` [Example 29.99998, (R)-methyl 2-((R)-5-(N-(5-cyclopropyl-3-(methylcarbamoyl)-2-p-tolylfuro[2,3-b]pyridin-6-yl)methylsulfonamido)-2-methylpentanamido)-2-phenylacetate], for which the IC50 is 0.002 µM. The same measure, in the same setting: next, `CNC(=O)c1c(-c2ccc(C)cc2)oc2nc(N(CCCC3(C(=O)O)COC3)S(C)(=O)=O)c(C3CC3)cc12` [Example 29.96, 3-(3-(N-(5-cyclopropyl-3-(methylcarbamoyl)-2-p-tolylfuro[2,3-b]pyridin-6-yl)methylsulfonamido)propyl) oxetane-3-carboxylic acid]: 0.005 µM. The same measure, in the same setting: then `CNC(=O)c1c(-c2ccc(F)cc2)oc2nc(N(Cc3cccc(C(N)=O)c3)S(C)(=O)=O)c(I)cc12` [Example 18.8, 6-(N-(3-carbamoylbenzyl)methylsulfonamido)-2-(4-fluorophenyl)-5-iodo-N-methylfuro[2,3-b]pyridine-3-carboxamide], with 0.051 µM; and `CCOC(=O)C1(CCCN(c2nc3oc(-c4ccc(C)cc4)c(C(=O)NC)c3cc2C2CC2)S(C)(=O)=O)CCNCC1` [Example 29.999993, ethyl 4-(3-(N-(5-cyclopropyl-3-(methylcarbamoyl)-2-p-tolylfuro[2,3-b]pyridin-6-yl)methylsulfonamido)propyl) piperidine-4-carboxylate], with 0.022 µM. As to `CNC(=O)c1c(-c2ccc(C)cc2)oc2nc(N(CCCC3(C(=O)O)CCN(C(=O)OC(C)(C)C)CC3)S(C)(=O)=O)c(C3CC3)cc12` [Example 29.9996, 1-(tert-butoxycarbonyl)-4-(3-(N-(5-cyclopropyl-3-(methylcarbamoyl)-2-p-tolylfuro[2,3-b]pyridin-6-yl)methylsulfonamido)propyl) piperidine-4-carboxylic acid], the IC50 was determined as 0.117 µM.

For the compound `CNC(=O)c1c(-c2ccc(F)cc2)oc2nc(N(C)S(C)(=O)=O)c(CCCC(C)O)cc12` (stereo not shown) [Example 4.93, 2-(4-fluorophenyl)-5-(4-hydroxypentyl)-N-methyl-6-(N-methylmethylsulfonamido)furo[2,3-b]pyridine-3-carboxamide], the IC50 was determined as 0.216 µM.
